In paper PMC6048268, “Resveratrol Inhibits Key Steps of Steroid Metabolism in a Human Estrogen-Receptor Positive Breast Cancer Model: Impact on Cellular Proliferation” (Frontiers in Pharmacology, 2018):
Several values for one entry are separate records, joined by “and”; a condition that tells them apart may be missing. Identical values can stand only once. Like-named read-outs stand apart in the source and are kept apart here.

How the values were obtained:
MDA-MB-231 cells [1] = test: Metabolism of RES in MDA-MB-231 cells (HPLC)
Protocol: (§1) After 48 h, the cellular media (100 μl) were mixed with 200 μl ice-cold (-20°C) methanol and subsequently centrifuged (14000 rpm, 5 min). The clear supernatants were then diluted 1:1 with aqueous ammonium acetate buffer (5 mM, pH = 7.4), and 80 μl of the samples were injected onto the HPLC column. […] Calibration of the chromatogram was accomplished using the external standard method.
(§2) The modes of inhibition were subsequently determined from Lineweaver–Burk plots, and the corresponding Ki values were calculated from Dixon plots using GraphPad Prism 6.0.

MCF-7 cells [2] = test: Metabolism of RES in MCF-7 cells (HPLC); details: MCF-7, Hill model
Protocol: as §1, §2

MCF-7 cells [3] = details: for mean formation rate: MCF-7, 100 nM DHEA; for mean formation rate / Vmax: 48 h; for Vmax: MCF-7, precursor DHEA or E1 0–100 nM, Michaelis–Menten; for formation rate: MCF-7, 100 nM E1, 48 h
Protocol: (§3) Briefly, cartridges were preconditioned with 2 × 1.0 ml acetonitrile and 3 × 1.0 ml ammonium acetate buffer (10 mM, pH = 5.0), and the samples were loaded onto the columns. After washing with 1 × 1.0 ml ammonium acetate buffer (10 mM, pH = 5.0) and 2 × 1.0 ml acetonitrile/ammonium acetate buffer (10 mM, pH 5.0) 10:90 (v/v), the analytes were eluted using 2 × 650 μl acetonitrile/ammonium acetate buffer (10 mM, pH = 5.0) 95:5 (v/v) and evaporated until dry. Subsequently, samples were reconstituted in 270 μl acetonitrile/ammonium acetate buffer (10 mM, pH = 5.0) 25:75 (v/v) and stored at -80°C until further LC–HRMS analysis.
(§4) After media collection, cell monolayers were washed five times with 2.0 ml DPBS, detached using 400 μl TrypLE® solution (37°C, 5 min), mixed with 600 μl DPBS and transferred into sample vials. Aliquots of these suspensions (100 μl each) were diluted and counted using the Casy® TT Cell Counter to determine the exact number of cells per sample well. The remaining cell suspensions (900 μl each) were gently centrifuged (1000 rpm, 8 min), and the supernatants were discarded. The cell pellets were subsequently resuspended in 100 μl aqueous ammonium acetate buffer (10 mM, pH = 5.0) and lysed by five freeze-thaw-cycles in liquid nitrogen (3 min each), followed by thawing at ambient temperature. Ammonium acetate buffer (1000 μl) was added, and the suspensions were centrifuged (14000 rpm, 5 min). Subsequently, the supernatants were concentrated using the same SPE protocol as described above. All processed samples were then stored at -80°C until further LC–HRMS analysis. For each condition, three biologically independent experiments were performed; the reported values represent the overall means ± SD of all values.
(§5) LC was performed with an UltiMate 3000 RSLC-series system coupled to a maXis HD ESI-Qq-TOF mass spectrometer (Bruker Corporation, Bremen, Germany). A Phenomenex Luna® 3 μm C18(2) 100 Å LC column (250 mm × 4.6 mm I.D.; Phenomenex, Inc., Torrance, CA, United States), preceded by a Hypersil® BDS-C18 guard column (5 μm, 10 mm × 4.6 mm I.D.; Thermo Fisher Scientific, Inc.) was used for the separation of the analytes at a flow rate of 1.0 ml/min and a temperature of 43°C. […] The ESI ion source settings were as follows: capillary voltage: -4.5 kV; dry gas flow rate: 8.0 l/min N2; nebulizer: 1.0 bar N2; and dry temperature: 200°C. The ion transfer parameters were set to 400 Vpp funnel RF and 300 Vpp multipole RF, the quadrupole ion energy was 8.0 eV, and the collision cell parameters were as follows: collision RF, 1100 Vpp; collision energy, 10.0 eV; transfer time, 38 μs; and pre-pulse storage, 18 μs. In the range of m/z 150–500, full-scan mass spectra were recorded.
as §2

MDA-MB-231 cells [4] = details: for mean formation rate: MDA-MB-231, 100 nM DHEA; for mean formation rate / Km / Vmax: 48 h; for Km / Vmax: MDA-MB-231, precursor DHEA or E1 0–100 nM, Michaelis–Menten; for formation rate: MDA-MB-231, 100 nM E1, 48 h
Protocol: as §3, §4, §5, §2

[5] = test system: steroid metabolism in MCF-7 cells; test: Inhibition of steroid metabolism by RES in MCF-7 cells (LC–HRMS); details: for formation rate in the presence of RES: 48 h
Protocol: as §3, §4, §5, §2

| Compound | mean formation rate (MCF-7 cells [3]) [fmol/10^6 cells/h] | Vmax (MCF-7 cells [3]) | mean formation rate (MDA-MB-231 cells [4]) [fmol/10^6 cells/h] | Km (MDA-MB-231 cells [4]) [µM] | Vmax (MDA-MB-231 cells [4]) [fmol/10^6 cells/h] | Km ([5]; MCF-7, 0 μM RES) [µM] | Vmax ([5]; MCF-7, 0 μM RES) [fmol/10^6 cells/h] | Km ([5]; MCF-7, 5 μM RES) [µM] | Vmax ([5]; MCF-7, 5 μM RES) | Km ([5]; MCF-7, 10 μM RES) [µM] | Vmax ([5]; MCF-7, 10 μM RES) | Km ([5]; MCF-7, 25 μM RES) [µM] | Vmax ([5]; MCF-7, 25 μM RES) | Km ([5]; MCF-7, 50 μM RES) [µM] | Vmax ([5]; MCF-7, 50 μM RES) | Km ([5]; MCF-7, 100 μM RES) [µM] | Vmax ([5]; MCF-7, 100 μM RES) | formation rate (MCF-7 cells [3]) [fmol/10^6 cells/h] | formation rate (MDA-MB-231 cells [4]) [fmol/10^6 cells/h] | other results |
| --- | --- | --- | --- | --- | --- | --- | --- | --- | --- | --- | --- | --- | --- | --- | --- | --- | --- | --- | --- | --- |
| O=C(O)[C@H]1O[C@@H](Oc2cc(O)cc(/C=C/c3ccc(O)cc3)c2)[C@H](O)[C@@H](O)[C@@H]1O (relative stereo) [RES-3G, trans-resveratrol-3-O-(β-D-glucuronide)] | – | – | – | – | – | – | – | – | – | – | – | – | – | – | – | – | – | – | – | maximum metabolite formation rate (MDA-MB-231 cells [1]; 25 μM RES, 48 h): 23.9 ± 2.4 pmol/10^6 cells/h; Vmax (MDA-MB-231 cells [1]; MDA-MB-231, Michaelis–Menten model): 32.8 ± 8.6 pmol/10^6 cells/h; Vmax (MDA-MB-231 cells [1]; MDA-MB-231, substrate inhibition model): 43.4 ± 2.2 pmol/10^6 cells/h; Slope (n) (MCF-7 cells [2]): 1.86 ± 0.18; Vmax (MCF-7 cells [2]): 422.9 ± 38.9 pmol/10^6 cells/h |
| C[C@]12CCC(=O)C=C1CC[C@@H]1[C@@H]2CC[C@]2(C)C(=O)CC[C@@H]12 [AD, 4-androstene-3,17-dione] | 68.5 ± 11.1 | 147.4 ± 8.1^∗ fmol/10^6 cells/h | 888.9 ± 60.1 | 0.126 ± 0.0366 | 1994.0 ± 364.5 | 0.115 ± 0.0096 | 147.4 ± 13.1 | 0.104 ± 0.0104 | 148.5 ± 9.4 fmol/10^6 cells/h | 0.102 ± 0.0079 | 172.6 ± 7.7^∗ fmol/10^6 cells/h | 0.112 ± 0.0107 | 242.0 ± 14.4^∗ fmol/10^6 cells/h | 0.106 ± 0.0042 | 295.3 ± 9.4^∗ fmol/10^6 cells/h | 0.0996 ± 0.0082 | 328.8 ± 12.9^∗ fmol/10^6 cells/h | – | – | formation rate in the presence of RES ([5]; MCF-7, 100 nM DHEA + 100 μM RES): 165.1 ± 18.7 fmol/10^6 cells/h |
| C[C@]12CC[C@H](OS(=O)(=O)O)CC1=CC[C@@H]1[C@@H]2CC[C@]2(C)C(=O)CC[C@@H]12 [DHEA-S, dehydroepiandrosterone-3-O-sulfate] | 870.0 ± 79.1 | 2873.0 ± 327.4 fmol/10^6 cells/h and 2873.0 ± 527.4 fmol/10^6 cells/h and 2873.0 ± 327.4^∗ fmol/10^6 cells/h | 0.14 ± 0.02 | 0.0554 ± 0.0205 | 0.22 ± 0.04 | 0.329 ± 0.0522 | 2873.0 ± 57.4 | 0.312 ± 0.0719 | 2766.2 ± 53.9 fmol/10^6 cells/h | 0.324 ± 0.0537 | 2280.1 ± 81.4^∗ fmol/10^6 cells/h | 0.404 ± 0.0931 | 1797.6 ± 48.9^∗ fmol/10^6 cells/h | 0.403 ± 0.0347 | 993.5 ± 74.8^∗ fmol/10^6 cells/h | 0.385 ± 0.0466 | 522.5 ± 54.8^∗ fmol/10^6 cells/h | – | – | – |
| C[C@]12CC[C@@H]3c4ccc(OS(=O)(=O)O)cc4CC[C@H]3[C@@H]1CCC2=O [E1-S, estrone-3-O-sulfate] | – | 30.4 ± 2.5 fmol/10^6 cells/h and 30.4 ± 2.5^∗ fmol/10^6 cells/h | – | 0.12 ± 0.0681 | 1.08 ± 0.38 | 0.102 ± 0.0129 | 30.4 ± 0.5 | 0.094 ± 0.012 | 4.51 ± 0.33^∗ fmol/10^6 cells/h | 0.101 ± 0.0086 | 2.54 ± 0.21^∗ fmol/10^6 cells/h | 0.12 ± 0.0155 | 1.23 ± 0.11^∗ fmol/10^6 cells/h | 0.109 ± 0.0041 | 0.57 ± 0.02^∗ fmol/10^6 cells/h | 0.105 ± 0.009 | 0.28 ± 0.01^∗ fmol/10^6 cells/h | 15.1 ± 0.8 | 0.49 ± 0.07 | – |
| C[C@]12CC[C@@H]3c4ccc(O)cc4CC[C@H]3[C@@H]1CC[C@@H]2O [E2, 17β-estradiol] | – | 628.6 ± 62.0 fmol/10^6 cells/h | – | 0.174 ± 0.0941 | 703.0 ± 164.5 | 0.169 ± 0.0117 | 628.6 ± 72.0 | 0.146 ± 0.0156 | 816.4 ± 76.6^∗ fmol/10^6 cells/h | 0.155 ± 0.0097 | 1001.4 ± 43.0^∗ fmol/10^6 cells/h | 0.153 ± 0.0136 | 1079.8 ± 71.4^∗ fmol/10^6 cells/h | 0.172 ± 0.0143 | 1247.3 ± 56.2^∗ fmol/10^6 cells/h | 0.174 ± 0.012 | 1302.2 ± 64.6^∗ fmol/10^6 cells/h | 233.9 ± 13.4 | 258.9 ± 25.1 | formation rate in the presence of RES ([5]; MCF-7, 100 nM E1 + 100 μM RES): 471.5 ± 43.6 fmol/10^6 cells/h |
